As usually defined, the MIC is the lowest concentration that inhibits growth of the organism. Broadly, the IC50 is the midpoint of a concentration-inhibition curve. The EC50 is the concentration giving half of the maximal effect.

Values after ≈ are worked out from the molar mass of the structure shown. Like-named read-outs stand apart in the source and are kept apart here. Bounds are passed on as bounds.

The test system of assay [1] is S. aureus MSSA (ATCC 29213). Briefly: MIC susceptibility testing. The assay is classed as cell-based, Staphylococcus aureus. As to conditions: S. aureus ATCC 29213; for MIC: Staphylococcus aureus, read-out: (F) S. aureus (ATCC 29213) MIC. The source says: Media and culture conditions. Mueller Hinton broth (MHB), cation adjusted Mueller Hinton broth (CA-MHB), and Brain Heart Infusion broth (BHI) were purchased from Becton Dickinson (Franklin Lakes, N.J.). Tryptic soy agar (TSA) plates, TSA with 5% sheep blood plates, and CA-MHB with 3% laked horse blood were purchased from Remel (San Diego, Calif.). MHB was used to assay all Staphylococcus aureus strains. CA-MHB was used for Staphylococcus epidermidis, Enterococcus faecalis, Enterococcus faecium, Escherichia coli, and Pseudomonas aeruginosa. CA-MHB supplemented with 3% laked horse blood was used for Streptococcus pneumoniae and Streptococcus pyogenes. Staphylococcus, Enterococcus, Escherichia, and Pseudomonas strains were cultured at 37° C. with ambient air. Streptococcus strains were cultured in 37° C. with 5% CO2. Separate conditions for radiolabeled precursor uptake assays are described below.
Susceptibility testing: Minimum inhibitory concentration (MIC) determinations were performed in triplicate in 96-well round bottom microtiter plates (Corning, Corning N.Y.) as described by the Clinical and Laboratory Standards Institute (CLSI). Serial two-fold dilutions of compounds were added to plates in 50 μL volumes. An additional 50 μL of media containing bacterial cells (1×10^6 CFUs/mL) was then added to each well. Maximum DMSO concentrations were 0.5%. Plates were incubated at 37° C. for at least 18 h before reading the susceptibility result by optical absorbance (OD600) using a BioTek ELx800. The lowest concentration causing ≥90% growth inhibition compared to the untreated control was recorded as the MIC (and also corresponded to the visual MIC). MICs were measured at least twice and the higher value (if different) was recorded herein.

For the next assay, the target named is MetRS (C. parvum) (Cryptosporidium parvum, UniProt Q5CVN0). Briefly: MetRS (C. parvum) enzyme inhibition. The assay is classed as biochemical. As to conditions: read-out: (C) MetRS (C. parvum) IC50.
MetRS (C. parvum), sequence (Q5CVN0 entry or part of it): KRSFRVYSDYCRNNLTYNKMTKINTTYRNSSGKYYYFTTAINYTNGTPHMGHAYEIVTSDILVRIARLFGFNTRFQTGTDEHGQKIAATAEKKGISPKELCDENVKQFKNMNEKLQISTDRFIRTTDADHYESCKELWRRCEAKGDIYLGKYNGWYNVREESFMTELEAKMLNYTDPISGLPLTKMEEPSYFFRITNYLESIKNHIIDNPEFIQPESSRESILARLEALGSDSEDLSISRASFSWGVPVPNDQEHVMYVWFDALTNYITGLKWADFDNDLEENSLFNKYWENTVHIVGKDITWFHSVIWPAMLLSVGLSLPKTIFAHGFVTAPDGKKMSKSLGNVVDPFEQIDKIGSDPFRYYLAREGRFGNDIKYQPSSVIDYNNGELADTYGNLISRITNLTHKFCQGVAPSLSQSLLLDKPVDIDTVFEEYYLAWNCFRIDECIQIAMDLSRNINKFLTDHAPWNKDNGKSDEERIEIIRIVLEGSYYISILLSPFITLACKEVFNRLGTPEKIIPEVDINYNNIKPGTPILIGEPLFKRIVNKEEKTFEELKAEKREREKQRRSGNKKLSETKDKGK
In the next assay the target is T1, MetRS (T. brucei) (Trypanosoma brucei brucei, UniProt Q38C91).
T1 sequence (Q38C91 1-773): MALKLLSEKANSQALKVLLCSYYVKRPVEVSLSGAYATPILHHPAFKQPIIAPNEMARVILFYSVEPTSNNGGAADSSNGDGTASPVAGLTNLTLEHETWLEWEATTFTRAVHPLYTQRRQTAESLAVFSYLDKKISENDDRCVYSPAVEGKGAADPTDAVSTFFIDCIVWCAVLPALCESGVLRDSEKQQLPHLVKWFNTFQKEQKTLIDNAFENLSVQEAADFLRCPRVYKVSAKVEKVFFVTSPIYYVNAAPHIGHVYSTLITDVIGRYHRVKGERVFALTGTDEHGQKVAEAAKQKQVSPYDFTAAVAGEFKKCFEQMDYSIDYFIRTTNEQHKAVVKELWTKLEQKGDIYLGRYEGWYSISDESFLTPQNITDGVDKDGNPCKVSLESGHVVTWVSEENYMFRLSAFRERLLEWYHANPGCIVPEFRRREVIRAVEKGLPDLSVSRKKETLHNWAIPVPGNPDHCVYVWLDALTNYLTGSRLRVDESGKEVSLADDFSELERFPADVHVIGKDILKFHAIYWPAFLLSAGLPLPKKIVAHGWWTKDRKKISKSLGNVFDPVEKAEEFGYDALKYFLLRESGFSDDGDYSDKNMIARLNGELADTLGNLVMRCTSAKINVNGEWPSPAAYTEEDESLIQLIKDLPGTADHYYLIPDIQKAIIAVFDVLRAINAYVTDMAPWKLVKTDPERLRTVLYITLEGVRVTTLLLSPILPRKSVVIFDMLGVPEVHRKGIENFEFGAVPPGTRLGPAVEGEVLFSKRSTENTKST
Nature of the assay: MetRS (T. brucei) enzyme inhibition. The assay is classed as biochemical.

For a further assay, the system named is T. cruzi. Nature of the assay: T. cruzi growth inhibition. The assay is classed as cell-based, Trypanosoma cruzi. As to conditions: read-out: (E) T. cruzi EC50.
The test system of another assay is T. brucei. Nature of the assay: T. brucei growth inhibition. The format is cell-based, Trypanosoma brucei. As to conditions: Trypanosoma brucei; read-out: (D) T. brucei EC50.
The test system of a further assay is C. parvum. Briefly: C. parvum growth inhibition. The format is cell-based, Cryptosporidium parvum. The following applies: read-out: (J) C. parvum EC50.

Take `O=c1n(Cc2nc3ccc(F)nc3[nH]2)cc(Cc2ccc(Cl)cc2Cl)n1C1CCCC1` [Compound 2081, 3-cyclopentyl-4-[(2,4-dichlorophenyl)methyl]-1-({5-fluoro-1H-imidazo[4,5-b]pyridin-2-yl}methyl)-2,3-dihydro-1H-imidazol-2-one]: the MIC in assay [1] was 1.33 mg/L (≈ 2.89 µM). Further, the IC50 at MetRS (C. parvum) and on MetRS (T. brucei) was less than 0.04 µM in each case. Moreover, the EC50 in the assay on T. cruzi (Trypanosoma cruzi) turned out to be 0.438 µM.

For `CC(C)(C)n1c(Cc2ccc(Cl)cc2Cl)cn(Cc2nc3ccc(F)nc3[nH]2)c1=O` [Compound 2084, 3-tert-butyl-4-[(2,4-dichlorophenyl)methyl]-1-({5-fluoro-1H-imidazo[4,5-b]pyridin-2-yl}methyl)-2,3-dihydro-1H-imidazol-2-one], the MIC in assay [1] turned out to be 2.04 mg/L (≈ 4.55 µM). Also, the IC50 on MetRS (C. parvum) and against MetRS (T. brucei) was less than 0.04 µM in each case. Moreover, the EC50 with T. cruzi (Trypanosoma cruzi) came to 0.608 µM.

As to `CCn1c(Cc2ccc(Cl)cc2Cl)cn(Cc2nc3ccc(C)nc3[nH]2)c1=O` [Compound 2092, 4-[(2,4-dichlorophenyl)methyl]-3-ethyl-1-({5-methyl-1H-imidazo[4,5-b]pyridin-2-yl}methyl)-2,3-dihydro-1H-imidazol-2-one], the MIC in assay [1] was more than 2.5 mg/L. In addition, the IC50 on MetRS (C. parvum) was 0.0475 µM; on MetRS (T. brucei), less than 0.04 µM. Further, the EC50 in the assay on T. cruzi (Trypanosoma cruzi) was 0.502 µM.

Turning to `CCn1cc(-c2ccc(OC)cc2Cl)c2c1CCN(Cc1nc3nc(Cl)ccc3[nH]1)C2` [Compound 2177, 5-chlor0-2-((3-(2-chloro-4-methoxyphenyl)-1-ethyl-6,7-dihydro-1H-pyrrolo[3,2-c]pyridin-5(4H)-yl)methyl)-1H-imidazo[4,5-b]pyridine], the IC50 on MetRS (C. parvum) and on MetRS (T. brucei) was less than 0.04 µM throughout. Further, the EC50 stood at 0.0925 µM with T. brucei and 0.409 µM in the assay on T. cruzi (Trypanosoma cruzi).

Regarding `CCNC(=O)Nc1ccc(-c2ccc(OC)cc2Cl)n2cc(Cc3nc4ccc(Cl)cc4[nH]3)nc12` [Compound 2182, 1-{2-[(6-chloro-1H-1,3-benzodiazol-2-yl)methyl]-5-(2-chloro-4-methoxyphenyl)imidazo[1,2-a]pyridin-8-yl}-3-ethylurea], the results for the IC50 on MetRS (C. parvum) and at MetRS (T. brucei) were 0.0421 µM and less than 0.04 µM, respectively. For the same compound, the EC50 in the assay with T. brucei worked out at 0.084 µM; in the assay on T. cruzi (Trypanosoma cruzi) it was 0.647 µM.

Consider `COc1ccc(-c2cnc(NC(C)=O)c3nc(Cc4nc5nc(Cl)ccc5[nH]4)cn23)c(Cl)c1` [Compound 2186, N-[2-({5-chloro-1H-imidazo[4,5-b]pyridin-2-yl}methyl)-5-(2-chloro-4-methoxyphenyl)imidazo[1,2-a]pyrazin-8-yl]acetamide], for which the “(F) S. aureus (ATCC 29213) MIC” value in assay [1] is 3.21 mg/L. In addition, the MIC in assay [1] came to 3.8 mg/L (≈ 7.88 µM). Further, the IC50 at MetRS (C. parvum) is 0.0492 µM; against MetRS (T. brucei), 0.059 µM. Further, the concentration for a half-maximal effect (EC50) with T. brucei came to 0.025 µM; in the assay with T. cruzi (Trypanosoma cruzi), 0.36 µM.

In the case of `O=c1[nH]c(C(O)c2ccc(Cl)cc2Cl)cn1Cc1nc2nc(Cl)ccc2[nH]1` (stereo not shown) [Compound 2202, 1-({5-chloro-1H-imidazo[4,5-b]pyridin-2-yl}methyl)-4-[(2,4-dichlorophenyl)(hydroxy)methyl]-2,3-dihydro-1H-imidazol-2-one], the “(F) S. aureus (ATCC 29213) MIC” value in assay [1] was determined as 13.2 mg/L. Besides, the MIC in assay [1] was more than 10 mg/L. For the same compound, the IC50 came out at 0.213 µM at MetRS (C. parvum) and 0.055 µM against MetRS (T. brucei). Besides, the EC50 turned out to be 0.0453 µM in the assay with T. brucei and 2.71 µM in the assay with T. cruzi (Trypanosoma cruzi).

`O=C(O)Cn1c(C(O)c2ccc(Cl)cc2Cl)cn(Cc2nc3ccc(Cl)nc3[nH]2)c1=O` (stereo not shown) [Compound 2218, 2-(3-((5-chloro-3H-imidazo[4,5-b]pyridin-2-yl)methyl)-5((2,4-dichlorophenyl)(hydroxy)methyl)-2-oxo-2,3-dihydro-1H-imidazol-1-yl)acetic acid]: the IC50 on MetRS (C. parvum) is 0.0401 µM; against MetRS (T. brucei), less than 0.04 µM. In addition, the EC50 is 0.718 µM in the assay with T. brucei and more than 5 µM in the assay on T. cruzi (Trypanosoma cruzi).

Consider `CCn1c(Cc2ccc(Cl)cc2Cl)cn(Cc2nc3c(ccc(Cl)[n+]3[O-])[nH]2)c1=O` [Compound 2235, 1-({5-chloro-4-oxo-1H-4λ^5-imidazo[4,5-b]pyridin-2-yl}methyl)-4-[(2,4-dichlorophenyl)methyl]-3-ethyl-2,3-dihydro-1H-imidazol-2-one], for which the IC50 at MetRS (C. parvum) was more than 1 µM. The EC50 with T. brucei was 1.05 µM; in the assay with C. parvum (Cryptosporidium parvum), more than 2 µM.

As for `COC(=O)c1c(Cl)ccc2[nH]c(Cc3cn4c(-c5ccc(OC)cc5Cl)cccc4n3)nc12` [Compound 2236, methyl 5-chlor0-2-{[5-(2-chloro-4-methoxyphenyl)imidazo[1,2-a]pyridin-2-yl]methyl}-1H-1,3-benzodiazole-4-carboxylate], the IC50 on MetRS (C. parvum) amounted to 0.335 µM. Moreover, the EC50 in the assay with T. brucei is 1.66 µM; in the assay with C. parvum (Cryptosporidium parvum), more than 2 µM.

Regarding `COC(=O)c1c(Cl)ccc2[nH]c(Cn3cc(Cc4ccc(OC)cc4Cl)n(CC(C)(C)O)c3=O)nc12` [Compound 2237, methyl 5-chlor0-2-({4-[(2-chloro-4-methoxyphenyl)methyl]-3-(2-hydroxy-2-methylpropyl)-2-oxo-2,3-dihydro-1H-imidazol-1-yl}methyl)-1H-1,3-benzodiazole-4-carboxylate], on MetRS (C. parvum), the IC50 is more than 1 µM. The EC50 was 0.546 µM with T. brucei and more than 2 µM with C. parvum (Cryptosporidium parvum).

In the case of `COc1ccc(Cc2cn(Cc3nc4ncc(Cl)c(C)c4[nH]3)c(=O)n2CC(C)(C)O)c(Cl)c1` [Compound 2238, 4-[(2-chloro-4-methoxyphenyl)methyl]-1-({6-chloro-7-methyl-1H-imidazo[4,5-b]pyridin-2-yl}methyl)-3-(2-hydroxy-2-methylpropyl)-2,3-dihydro-1H-imidazol-2-one], the IC50 on MetRS (C. parvum) is 0.127 µM. Besides, the EC50 with T. brucei was 0.174 µM; with C. parvum (Cryptosporidium parvum), more than 2 µM.

In the case of `COc1ccc(-c2cccn3c(=S)n(Cc4nc5nc(Cl)ccc5[nH]4)cc23)c(Cl)c1` [Compound 2243, 2-({5-chloro-1H-imidazo[4,5-b]pyridin-2-yl}methyl)-8-(2-chloro-4-methoxyphenyl)-2H,3H-imidazo[1,5-a]pyridine-3-thione], the EC50 in the assay on T. cruzi (Trypanosoma cruzi) came to 0.0969 µM; in the assay on T. cruzi it was 0.172 µM; in the assay with C. parvum (Cryptosporidium parvum), 0.753 µM; with C. parvum, 1.44 µM.

With `COc1ccc(Cc2cn(Cc3nc4c(F)c(F)ccc4[nH]3)c(=O)n2CC(F)F)c(Cl)c1` [Compound 2261, 4-[(2-chloro-4-methoxyphenyl)methyl]-1-[(6,7-difluoro-1H-1,3-benzodiazol-2-yl)methyl]-3-(2,2-difluoroethyl)-2,3-dihydro-1H-imidazol-2-one], the EC50 with T. cruzi (Trypanosoma cruzi) turned out to be 0.214 µM; in the assay with C. parvum (Cryptosporidium parvum), 0.34 µM; in the assay on C. parvum, 0.561 µM.

Consider `OCCOc1cc(-c2cccc3nc(Cc4nc5nc(Cl)ccc5[nH]4)cn23)c(Cl)cc1Cl` [Compound 2270, 2-{2,4-dichloro-5-[2-({5-chloro-1H-imidazo[4,5-b]pyridin-2-yl}methyl)imidazo[1,2-a]pyridin-5-yl]phenoxy}ethan-1-ol], for which the EC50 with T. brucei is 0.0433 µM; in the assay with T. cruzi (Trypanosoma cruzi), 0.706 µM; with C. parvum (Cryptosporidium parvum), more than 2 µM.

For `Clc1ccc2[nH]c(Cc3cn4c(-c5cc(OCCOC6CCCCO6)c(Cl)cc5Cl)cccc4n3)nc2n1` (stereo not shown) [Compound 2271, 2-({5-chloro-1H-imidazo[4,5-b]pyridin-2-yl}methyl)-5-{2,4-dichloro-5-[2-(oxan-2-yloxy)ethoxy]phenyl}-imidazo[1,2-a]pyridine], the EC50 was 0.0539 µM in the assay with T. brucei, 0.494 µM with T. cruzi (Trypanosoma cruzi) and more than 2 µM in the assay on C. parvum (Cryptosporidium parvum).

The values above are taken from patent publication US11584744B2 (UNIVERSITY OF WASHINGTON, priority 2017, dated 2023).
